The results in this text go back to ChEMBL document CHEMBL1135660, “Design, synthesis, and tripeptidyl peptidase II inhibitory activity of a novel series of (S)-2,3-dihydro-2-(4-alkyl-1H-imidazol-2-yl)-1H-indoles” (J Med Chem, 2002).

pIC50: −log10 of the molar value.

For this test, the target named is Tripeptidyl-peptidase 2 (Rattus norvegicus, UniProt Q64560). Nature of the test: Inhibitory activity against tripeptidyl peptidase II purified from rat liver.
Chain of Tripeptidyl-peptidase 2 (Q64560 whole entry): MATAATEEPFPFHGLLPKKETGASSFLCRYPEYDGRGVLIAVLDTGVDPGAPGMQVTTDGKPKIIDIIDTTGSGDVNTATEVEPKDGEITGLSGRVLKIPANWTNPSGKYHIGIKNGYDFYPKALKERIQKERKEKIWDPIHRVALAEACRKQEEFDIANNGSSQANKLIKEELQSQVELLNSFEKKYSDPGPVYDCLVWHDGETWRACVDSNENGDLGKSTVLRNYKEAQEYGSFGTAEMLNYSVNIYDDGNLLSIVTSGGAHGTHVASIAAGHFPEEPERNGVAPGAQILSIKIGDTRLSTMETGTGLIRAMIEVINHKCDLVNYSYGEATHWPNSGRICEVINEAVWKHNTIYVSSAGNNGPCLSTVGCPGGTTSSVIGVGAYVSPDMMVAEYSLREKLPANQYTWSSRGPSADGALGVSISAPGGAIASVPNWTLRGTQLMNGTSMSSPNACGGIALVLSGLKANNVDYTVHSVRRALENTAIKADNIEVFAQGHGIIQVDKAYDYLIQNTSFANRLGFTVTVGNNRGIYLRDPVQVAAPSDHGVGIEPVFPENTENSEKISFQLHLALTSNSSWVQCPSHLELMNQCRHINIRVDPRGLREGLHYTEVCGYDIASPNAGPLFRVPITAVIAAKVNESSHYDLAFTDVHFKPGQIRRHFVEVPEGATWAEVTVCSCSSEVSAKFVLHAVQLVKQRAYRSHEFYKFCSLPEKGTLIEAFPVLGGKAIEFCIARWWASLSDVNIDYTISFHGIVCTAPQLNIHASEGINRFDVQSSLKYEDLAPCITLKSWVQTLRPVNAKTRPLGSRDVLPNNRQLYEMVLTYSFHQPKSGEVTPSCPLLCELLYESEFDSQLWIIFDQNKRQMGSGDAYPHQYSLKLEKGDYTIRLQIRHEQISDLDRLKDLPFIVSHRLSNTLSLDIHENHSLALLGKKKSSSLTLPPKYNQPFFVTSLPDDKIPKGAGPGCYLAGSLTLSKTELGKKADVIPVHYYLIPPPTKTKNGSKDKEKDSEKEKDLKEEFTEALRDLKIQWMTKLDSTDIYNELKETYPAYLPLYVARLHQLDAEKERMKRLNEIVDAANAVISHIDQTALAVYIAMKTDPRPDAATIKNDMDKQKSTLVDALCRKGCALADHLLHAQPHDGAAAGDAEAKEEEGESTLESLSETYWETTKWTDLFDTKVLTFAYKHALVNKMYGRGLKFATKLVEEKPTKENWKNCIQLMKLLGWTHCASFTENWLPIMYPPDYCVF
Turning to `CCCc1cnc([C@@H]2Cc3ccccc3N2C(C)=O)[nH]1`, the pIC50 (in general, the negative decadic logarithm of the IC50, by convention in mol/L) was below 5.00.
Under `CC[C@H](N)C(=O)N1c2ccccc2C[C@H]1c1ncc(C)[nH]1` stands 7.64.
Under `CCc1c[nH]c([C@@H]2Cc3ccccc3N2C(=O)[C@H](C)N)n1` stands below 5.00; under `CC[C@@H]1NC(=O)[C@@H]2Cc3ccccc3N2C1=O`, below 5.00.
